Series [1] can be described thus: Stability of dehydrogenases and FITC-NADH by fluorescence polarization over time. Type of series: physicochemical. Particulars: 1.5 nM FITC-NADH with EACPR, GAPDH or DHPR. As to the method:
The fluorescence polarization of solutions of 10 μM enoyl ACP reductase, 5.6 μM glyceraldehyde-3-phosphate dehydrogenase and 10 μM dihydrodipicolinate reductase with 1.5 nM FITC-NADH, was measured. The concentration of the dehydrogenase was such that the solution of dehydrogenase and FITC-NADH would give the polarization mP value of 70-80. The blank was a solution of protein in buffer. Fluorescence polarization measurements were taken for 2 hours at 5 minute intervals.
In general terms: Fluorescence polarisation rises when a labelled molecule tumbles more slowly, as on binding a larger partner.

The target of series [2] is dihydrodipicolinate reductase (DHPR) (Escherichia coli, UniProt P04036). The experiment in a line: Fluorescence polarization binding of FITC-NADH titrated with dihydrodipicolinate reductase (FIG. 4). Particulars: 25 nM FITC-NADH, 20 mM Potassium Phosphate, pH 7.4, or 20 mM HEPES, pH 7.8, fit of mP vs Log(DHPR). As to the method: This example illustrates the determination of the concentration of FITC-NADH that would provide the best signal to noise ratio for fluorescence polarization assay. FITC-NADH was dissolved in 10 mM TAPS buffer with 5% NaHCO3, pH=8. The final concentration of FITC-NADH was 150 μM. In later experiments 150 μM FITC-NADH was diluted to the desired concentration in 20 mM Potassium Phosphate buffer, pH=7.4. Fluorescence polarization was monitored using a Beacon 2000 Variable Temperature Fluorescence Polarization System (PanVera Corporation, Madison, Wis.) and an LJL Analyst HT 96-384 (Molecular Devices Corporation, Sunnyvale, Calif.). The concentration of FITC-NADH as fluorescent tracer was selected by measuring fluorescence polarization of varying concentrations of FITC-NADH in 10 mM Potassium Phosphate buffer, pH=7.4. The concentration range was 0.15 nM—15 nM. For the best signal to noise ratio regarding both the horizontal and vertical intensities that contribute to the fluorescence polarization value, a concentration of 25 nM was chosen for FITC-NADH in the majority of experiments.
This example illustrates the binding characteristics of FITC-NADH to various dehydrogenases. […] An individual blank of protein in buffer was measured for each point. […] FITC-NADH was added to the test tubes and the fluorescence polarization measurement was taken. […]

dihydrodipicolinate reductase (DHPR), sequence (P04036 whole entry): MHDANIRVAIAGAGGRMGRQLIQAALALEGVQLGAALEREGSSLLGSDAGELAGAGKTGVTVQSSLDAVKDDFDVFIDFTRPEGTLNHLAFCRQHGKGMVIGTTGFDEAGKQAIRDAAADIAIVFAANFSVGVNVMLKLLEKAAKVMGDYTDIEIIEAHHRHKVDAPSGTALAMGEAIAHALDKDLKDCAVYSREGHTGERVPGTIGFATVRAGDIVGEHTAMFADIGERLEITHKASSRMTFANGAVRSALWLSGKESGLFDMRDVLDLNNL

As to `NC(=O)C1=CN(C2OC(COP(=O)(O)OP(=O)(O)OCC3OC(n4cnc5c(NCCNC(=S)Nc6ccc(-c7c8ccc(=O)cc-8oc8cc(O)ccc78)c(C(=O)O)c6)ncnc54)C(O)C3O)C(O)C2O)C=CC1` (centres unmarked) [FITC-NADH, fluorescein isothiocyano-N^6-(2-aminoethyl)-NADH], the “time stable in fluorescence polarization assay” value in series [1] is 100 min. Binding in series [2] was put at a Kd of 1400 ± 100 nM.

Values taken from patent US20030228621A1, “Common ligand universal enzyme assay and compositions for use therein” (priority 2002, published 2003).
